Data from patent US20240409886A1, “CULTURE MEDIUM COMPRISING DIPEPTIDES” (Evonik Operations GmbH, priority 2017, published 2024).
Residues, ends and D or L forms follow the SMILES beside them.

Experiments:
[1] = system: antibody-producing Chinese Hamster Ovary (CHO) cell (subclone DG44); test: viable cell density in CHO cell culture with increasing Gln-Asn dipeptide (OFAT); type: cell-based
Protocol: The effect of the Gln-Asn dipeptide on an antibody-producing Chinese Hamster Ovary (CHO) cell (subclone DG44; Life Technologies Corporation, Carlsbad, USA) was investigated using one-factor-at-a-time (OFAT) analysis.
The analysis was based on a comparison of the viable cell density and cell viability in a series of cell cultures, which were conducted at substantially identical culturing conditions, however, with increasing amounts of the Gln-Asn dipeptide in the medium. In order to keep the total amounts of Asn and Gln units (molar basis) in the various culture media constant, the molar concentration of free glutamine and free asparagine was reduced in accordance with the molar amount of the dipeptide added. A series of culture media having increasing amounts of the Gln-Asn dipeptide was prepared by mixing varying amounts of a Base Medium (comprising free Asn and Gln) and a Test Medium (comprising Asn-Gln dipeptide). A commercially available defined cell culture medium (TC-42, TeutoCell AG, Bielefeld, Germany) served as the Base Medium. (Any other suitable cell culture medium could be used.) A Test Medium (TC-42-EVO) was prepared so as to have identical nutrient concentrations compared to the Base Medium, however, instead of free Asn the Test Medium contained an equimolar amount (5.4 mM) of Gin-Asn dipeptide. Furthermore, the free Gln concentration in the Test Medium was set to a value such that the total concentration of Gln units in the Test Medium (i.e., free Gln and dipeptide-Gln) matched the concentration of free Gln in the Base Medium. All other nutrient concentrations in the Test Medium were the same as in the Base Medium. The Base Medium contained 1461.5 mg/l free Gln and 612 mg/l free Asn.
Six cell cultivations were then conducted with media containing varying amounts of the Test Medium and the Base Medium in the following proportions:
All media were set to pH 8.3. Salinity of the culture media was set to 285 mOsmol/kg with NaCl. All cultivations were conducted in on a rotary shaker under identical culture conditions (temperature, humidity, rpm, CO2, etc.), using standard cell culture methods. Three passages of a cell culture are conducted and viable cell density (VCD; 10^6 viable cells/ml) and cell viability (%) was followed in duplicate determinations, using […] determination.
A correlation of the maximum viable cell density (third passage) with the concentration of the dipeptide is observed. The greatest maximum viable cell density is obtained in cultivation #1, i.e., in the cultivation in which all Asn is provided in the form of the Asn-containing dipeptide. The lowest maximum viable cell density is obtained in cultivation #6, i.e., in the cultivation in which all of the Asn in provided as free amino acid. Furthermore, it can be seen that the increased viable cell density is maintained over an extended period of time (day 13 through day 18).

[2] = system: antibody-producing Chinese Hamster Ovary (CHO) cell (subclone DG44)
Protocol: The analysis was based on a comparison of the viable cell density and cell viability in a series of cell cultures, which were conducted at substantially identical culturing conditions, however, with increasing amounts of the Gln-Asn dipeptide in the medium. In order to keep the total amounts of Asn and Gln units (molar basis) in the various culture media constant, the molar concentration of free glutamine and free asparagine was reduced in accordance with the molar amount of the dipeptide added. A series of culture media having increasing amounts of the Gln-Asn dipeptide was prepared by mixing varying amounts of a Base Medium (comprising free Asn and Gln) and a Test Medium (comprising Asn-Gln dipeptide). A commercially available defined cell culture medium (TC-42, TeutoCell AG, Bielefeld, Germany) served as the Base Medium. […] Furthermore, the free Gln concentration in the Test Medium was set to a value such that the total concentration of Gln units in the Test Medium (i.e., free Gln and dipeptide-Gln) matched the concentration of free Gln in the Base Medium. All other nutrient concentrations in the Test Medium were the same as in the Base Medium. […]

In the case of NC(=O)CC[C@H](N)C(=O)N[C@@H](CC(N)=O)C(=O)O [Gln-Asn, L-glutaminyl-L-asparagine] (H-Gln-Asn-OH), the viable cell density ([1]; 1.4 mM dipeptide (#3), time 9.82) is reported as 2.97 10^6 cells/ml, the viable cell density ([1]; 1.4 mM dipeptide (#3), time 10.99) is reported as 5.25 10^6 cells/ml and the viable cell density ([1]; 1.4 mM dipeptide (#3), time 12.02) is reported as 8.29 10^6 cells/ml. For the same molecule, the viable cell density ([1]; 1.4 mM dipeptide (#3), time 12.75) was 9.23 10^6 cells/ml, the viable cell density ([1]; 1.4 mM dipeptide (#3), time 13.89) was 8.975 10^6 cells/ml and the viable cell density ([1]; 1.4 mM dipeptide (#3), time 14.74) was 9.58 10^6 cells/ml. For the same molecule, the viable cell density ([1]; 1.4 mM dipeptide (#3), time 15.79) was 9.535 10^6 cells/ml, the viable cell density ([1]; 1.4 mM dipeptide (#3), time 16.89) was 7.395 10^6 cells/ml and the viable cell density ([1]; 1.4 mM dipeptide (#3), time 18.06) was 5.985 10^6 cells/ml. The viable cell density ([1]; 4.3 mM dipeptide (#2), time 0) was 0.27 10^6 cells/ml, the viable cell density ([1]; 4.3 mM dipeptide (#2), time 0.89) was 0.51 10^6 cells/ml and the viable cell density ([1]; 4.3 mM dipeptide (#2), time 3.08) was 1.615 10^6 cells/ml. For the same molecule, the viable cell density ([1]; 4.3 mM dipeptide (#2), time 3.71) was 2.13 10^6 cells/ml, the viable cell density ([1]; 4.3 mM dipeptide (#2), time 4.08) was 0.3 10^6 cells/ml and the viable cell density ([1]; 4.3 mM dipeptide (#2), time 4.70) was 0.54 10^6 cells/ml. The viable cell density ([1]; 4.3 mM dipeptide (#2), time 5.69) was 1.545 10^6 cells/ml, the viable cell density ([1]; 4.3 mM dipeptide (#2), time 6.88) was 3.555 10^6 cells/ml and the viable cell density ([1]; 4.3 mM dipeptide (#2), time 7.04) was 0.305 10^6 cells/ml. For the same molecule, the viable cell density ([1]; 4.3 mM dipeptide (#2), time 7.80) was 1.045 10^6 cells/ml, the viable cell density ([1]; 4.3 mM dipeptide (#2), time 8.78) was 1.545 10^6 cells/ml and the viable cell density ([1]; 4.3 mM dipeptide (#2), time 9.82) was 2.8 10^6 cells/ml. The viable cell density ([1]; 4.3 mM dipeptide (#2), time 10.99) was 5.115 10^6 cells/ml, the viable cell density ([1]; 4.3 mM dipeptide (#2), time 12.02) was 7.215 10^6 cells/ml and the viable cell density ([1]; 4.3 mM dipeptide (#2), time 12.75) was 9.42 10^6 cells/ml. For the same molecule, the viable cell density ([1]; 4.3 mM dipeptide (#2), time 13.89) was 9.645 10^6 cells/ml, the viable cell density ([1]; 4.3 mM dipeptide (#2), time 14.74) was 9.985 10^6 cells/ml and the viable cell density ([1]; 4.3 mM dipeptide (#2), time 15.79) was 11.08 10^6 cells/ml. The viable cell density ([1]; 4.3 mM dipeptide (#2), time 16.89) was 9.195 10^6 cells/ml, the viable cell density ([1]; 4.3 mM dipeptide (#2), time 18.06) was 8.905 10^6 cells/ml and the viable cell density ([1]; 5.4 mM dipeptide (#1), time 0) was 0.28 10^6 cells/ml. The viable cell density ([1]; 5.4 mM dipeptide (#1), time 0.89) was 0.59 10^6 cells/ml, the viable cell density ([1]; 5.4 mM dipeptide (#1), time 3.08) was 1.38 10^6 cells/ml and the viable cell density ([1]; 5.4 mM dipeptide (#1), time 3.71) was 1.64 10^6 cells/ml. The viable cell density ([1]; 5.4 mM dipeptide (#1), time 4.08) was 0.365 10^6 cells/ml, the viable cell density ([1]; 5.4 mM dipeptide (#1), time 4.70) was 0.56 10^6 cells/ml and the viable cell density ([1]; 5.4 mM dipeptide (#1), time 5.69) was 1.33 10^6 cells/ml. The viable cell density ([1]; 5.4 mM dipeptide (#1), time 6.88) was 3.16 10^6 cells/ml, the viable cell density ([1]; 5.4 mM dipeptide (#1), time 7.04) was 0.335 10^6 cells/ml and the viable cell density ([1]; 5.4 mM dipeptide (#1), time 7.80) was 0.665 10^6 cells/ml. The viable cell density ([1]; 5.4 mM dipeptide (#1), time 8.78) was 1.26 10^6 cells/ml, the viable cell density ([1]; 5.4 mM dipeptide (#1), time 9.82) was 2.67 10^6 cells/ml and the viable cell density ([1]; 5.4 mM dipeptide (#1), time 10.99) was 3.57 10^6 cells/ml. The viable cell density ([1]; 5.4 mM dipeptide (#1), time 12.02) was 4.91 10^6 cells/ml, the viable cell density ([1]; 5.4 mM dipeptide (#1), time 12.75) was 6.415 10^6 cells/ml and the viable cell density ([1]; 5.4 mM dipeptide (#1), time 13.89) was 8.285 10^6 cells/ml. For the same molecule, the viable cell density ([1]; 5.4 mM dipeptide (#1), time 14.74) was 11.695 10^6 cells/ml, the viable cell density ([1]; 5.4 mM dipeptide (#1), time 15.79) was 10.075 10^6 cells/ml and the viable cell density ([1]; 5.4 mM dipeptide (#1), time 16.89) was 7.995 10^6 cells/ml. For the same molecule, the viable cell density ([1]; 5.4 mM dipeptide (#1), time 18.06) was 6.6 10^6 cells/ml, the “maximum viable cell density (third passage)” value ([1]; cultivation #1, all Asn provided in the form of the dipeptide (5.4 mM), compared among cultivations #1-6) was “greatest” and the “cell viability at day 18” value ([2]; high concentrations of the dipeptide (cultivations #1, #2, #3)) was “relatively high viability”. For the same molecule, the “cell viability at the end of experiment” value ([2]; lower concentration of the dipeptide (cultivations #4, #5)) was “significantly reduced cell viability”.
